In patent publication US20230106583A1, “HETEROARYL COMPOUNDS” (Vivace Therapeutics, Inc., priority 2019, published 2023) one finds IC50 data, which are given here for 14 molecules.

Structures are written as SMILES. Some results are limits rather than exact numbers.

This test concerns HEK293T cells stably transfected with 8XTBD luciferase reporter and pRLTK. The experiment in a line: YAP Reporter Assay (8XTBD-driven firefly luciferase). Type of test: cell-based. The settings on record: Homo sapiens, HEK-293T; HEK293T 8XTBD luciferase reporter; 24-hr incubation with compounds; top concentration 3 μM, 10 points. The protocol: HEK293T cells stably transfected with 8XTBD luciferase reporter and pRLTK in 384-well plates were treated with the test compounds, starting from 3 μM (final concentration in assay plate), 1:3 dilution, and 10 points in quadruplicates. Post 24-hr incubation with compounds at 37° C. and 5% CO2, cells were lysed and 8XTBD-driven firefly luciferase and control TK-driven renilla luciferase activities were measured using Promega Dual-Luciferase Reporter Assay System.
Reagents: The reagents used for this study are: DMEM: Invitrogen #11960077, Dual-Glo Luciferase Assay System: Promega-E2980, Puromycin Dihydrochloride: Invitrogen-A1113803, 384-well plate: PerkinElmer-6007480, L-GLUTAMINE: Invitrogen-25030164, Hygromycin B: Invitrogen-10687010, and Penicillin-Streptomycin: Merk-TMS-AB2-C
Media: The media used for this assay were: Culture Medium: DMEM+1 ug/mL puromycin+200 ug/mL hygromycin (with 10% FBS+1 mM L-glutamine); and Assay Medium: DMEM (with 10% FBS+1 mM L-glutamine+1×P/S).
Cell Plating: The appropriate media was warmed at 37° C. by water bath: Culture Medium, Assay Medium, 1*D-PBS, 0.05% trypsin-EDTA. The cells were trypsinized after removing all media, then washed with 1*sterile D-PBS and then with 2 ml 0.05% trypsin-EDTA. The cells were then incubated at RT for one minute. Then 10 ml/75 cm2 flask Assay Medium was added to each flask. Using a 10 ml pipette, the cells were then gently resuspended in the media, until the clumps completely disappeared. The cells were then transferred into 50 ml centrifuge tubes and were centrifuged at 800 rpm for 5 mins. The medium was removed and the cells were resuspended with Assay Medium. An aliquot of cells was used to count the cell density (cells/ml). The cell suspension was then diluted with Assay Medium to a concentration of 6×10^4 cells/ml. 50 ul cells suspension was then plated to 384-well plate (PerkinElmer-6007480), 3×10^3 cells/well and the cells were incubated in an incubator at 37° C., 5% CO2.
Compound Treatment: In the afternoon (incubation of the plate with 3-4 hrs), the test compounds were added by Echo, starting from 3 uM (final concentration in the assay plate), 1:3 dilution, 10 points, quadruplicates. The plate was placed at 37° C., 5% CO2 incubator for 24 hrs.
Detection: The Dual-Glo Luciferase Reagent was prepared by transferring the contents of one bottle of Dual-Glo Luciferase Buffer to one bottle of Dual-Glo Luciferase Substrate to create the Dual-Glo Luciferase Reagent. Mixing was performed by inversion until the substrate was thoroughly dissolved. After mixing, the reagent was aliquoted into 15 ml tubes. In the afternoon (24 hrs post compound treatment), the DMEM+medium in the 384 well plates were aspirated by Microplate Washer.
Measuring firefly luciferase activity: 20 ul Dual-Glo Luciferase Reagent was added to the 384-well plates. The plates were protected from light to prevent interference with the assay. The plates were shaken for 1 min followed centrifuging plates at 1000 rpm for 30 seconds. After waiting at least 10 minutes, the firefly luminescence was measured by Envision.
Measuring renilla luciferase activity: 20 ul Stop-Glo Reagent was added to the 384-well plates. The plates were shaken for 1 min and then centrifuged at 1000 rpm for 30 seconds. After waiting at least 10 minutes, the renilla luminescence was measured by Envision.
Compound IC50 and maximum inhibition on the firefly luciferase and renilla luciferase activities were reported separately.
Background: A reporter such as luciferase makes a cellular process visible.

Consider `CC1(c2nnc(-c3cccnc3Nc3ccc(C(F)(F)F)cc3)o2)OCCNC1=O` (centres unmarked) [Compound 37, 2-methyl-2-(5-(2-((4-(trifluoromethyl)phenyl)amino)pyridin-3-yl)-1,3,4-oxadiazol-2-yl)morpholin-3-one], for which the half-maximal inhibitory concentration (IC50) was not above 100 nM.
To `CC1(c2nnc(-c3nccnc3Nc3ccc(C(F)(F)F)cc3)o2)CCNC1=O` (centres unmarked) [Compound 20, 3-methyl-3-{5-[3-(4-trifluoromethyl-phenylamino)-pyrazin-2-yl]-[1,3,4]oxadiazol-2-yl}-pyrrolidin-2-one] belongs not above 100 nM.
The figure for `CC1(c2nnc(-c3cccnc3Nc3ccc(C(F)(F)F)cc3)o2)NCCNC1=O` (centres unmarked) [Compound 26, 3-methyl-3-[5-[2-[4-(trifluoromethyl)anilino]-3-pyridyl]-1,3,4-oxadiazol-2-yl]piperazin-2-one] is not above 100 nM; for `CC[C@]1(c2nnc(-c3cccnc3Nc3ccc(C(F)(F)F)cc3)o2)CCNC1=O` [Compound 33, (3R)-3-ethyl-3-[5-[2-[4-(trifluoromethyl)anilino]-3-pyridyl]-1,3,4-oxadiazol-2-yl]pyrrolidin-2-one] it is not above 100 nM.
The figure for `CC[C@@]1(c2nnc(-c3cccnc3Nc3ccc(C(F)(F)F)cc3)o2)CCNC1=O` [Compound 34, (3S)-3-Ethyl-3-[5-[2-[4-(trifluoromethyl)anilino]-3-pyridyl]-1,3,4-oxadiazol-2-yl]pyrrolidin-2-one] is not above 100 nM; for `C[C@]1(c2nnc(-c3cccnc3Nc3ccc(C(F)(F)F)cc3)o2)CCCNC1=O` [Compound 40, (R)-3-methyl-3-(5-(2-((4-(trifluoromethyl)phenyl)amino)pyridin-3-yl)-1,3,4-oxadiazol-2-yl)piperidin-2-one] it is 100 to 1000 nM.
Turning to `CC[C@@]1(c2nnc(-c3cccnc3Nc3ccc(C(F)(F)F)cc3)o2)CCCNC1=O` [Compound 31, (3S)-3-ethyl-3-[5-[2-[4-(trifluoromethyl)anilino]-3-pyridyl]-1,3,4-oxadiazol-2-yl]piperidin-2-one], the half-inhibitory concentration (IC50) fell in the range of 100 to 1000 nM.
To `CN(C#N)CCc1nnc(-c2nccnc2Nc2ccc(C(F)(F)F)cc2)o1` [Compound 1, methyl-[2-[5-[3-[4-(trifluoromethyl)anilino]pyrazin-2-yl]-1,3,4-oxadiazol-2-yl]ethyl]cyanamide] belongs not above 100 nM.
To `CN(C#N)Cc1nnc(-c2cccnc2Nc2ccc(C(F)(F)F)cc2)o1` [Compound 6, methyl-[[5-[2-[4-(trifluoromethyl)anilino]-3-pyridyl]-1,3,4-oxadiazol-2-yl]methyl]cyanamide] belongs not above 100 nM.
Consider `CC1(c2nnc(-c3cccnc3Nc3ccc(C(F)(F)F)cc3)o2)CCNC1=O` (centres unmarked) [Compound 19, 3-methyl-3-(5-(2-((4-(trifluoromethyl)phenyl)amino)pyridin-3-yl)-1,3,4-oxadiazol-2-yl)pyrrolidin-2-one], for which the IC50 is not above 100 nM.
The figure for `C[C@]1(n2nnc(-c3cccnc3Nc3ccc(C(F)(F)F)cc3)n2)CCNC1=O` [Compound 42, (3S)-3-methyl-3-[5-[2-[4-(trifluoromethyl)anilino]-3-pyridyl]tetrazol-2-yl]pyrrolidin-2-one] is not above 100 nM; for `CC1(c2nnc(-c3cccnc3Nc3ccc(C(F)(F)F)cc3)o2)CC(N)=NC1=O` (centres unmarked) [Compound 38, 2-amino-4-methyl-4-[5-[2-[4-(trifluoromethyl)anilino]-3-pyridyl]-1,3,4-oxadiazol-2-yl]-3H-pyrrol-5-one] it is not above 100 nM; for `C[C@@]1(n2nnc(-c3cccnc3Nc3ccc(S(F)(F)(F)(F)F)cc3)n2)CCNC1=O` [Compound 27, (3R)-3-methyl-3-[5-[2-[4-(pentafluoro-λ^6-sulfanyl)anilino]-3-pyridyl]tetrazol-2-yl]pyrrolidin-2-one] it is 100 to 1000 nM.
The figure for `C[C@@]1(c2nnc(-c3cccnc3Nc3ccc(C(F)(F)F)cc3)o2)CCNC1=O` [Compound 13, (S)-3-methyl-3-(5-(2-((4-(trifluoromethyl)phenyl)amino)pyridin-3-yl)-1,3,4-oxadiazol-2-yl)pyrrolidin-2-one] is not above 100 nM.

The term IC50 denotes the concentration at which inhibition is half-maximal.
